Reference: US4611059A, “Pyridyl-substituted benzothiophenes” (The Upjohn Company, priority 1985, dated 1986)

Target: T1, TXA2 synthetase (Homo sapiens, UniProt P24557)
T1 construct: human platelet microsomes (HPM); from tissue; host or cells: human platelet microsomes
T1 sequence (P24557 1-533): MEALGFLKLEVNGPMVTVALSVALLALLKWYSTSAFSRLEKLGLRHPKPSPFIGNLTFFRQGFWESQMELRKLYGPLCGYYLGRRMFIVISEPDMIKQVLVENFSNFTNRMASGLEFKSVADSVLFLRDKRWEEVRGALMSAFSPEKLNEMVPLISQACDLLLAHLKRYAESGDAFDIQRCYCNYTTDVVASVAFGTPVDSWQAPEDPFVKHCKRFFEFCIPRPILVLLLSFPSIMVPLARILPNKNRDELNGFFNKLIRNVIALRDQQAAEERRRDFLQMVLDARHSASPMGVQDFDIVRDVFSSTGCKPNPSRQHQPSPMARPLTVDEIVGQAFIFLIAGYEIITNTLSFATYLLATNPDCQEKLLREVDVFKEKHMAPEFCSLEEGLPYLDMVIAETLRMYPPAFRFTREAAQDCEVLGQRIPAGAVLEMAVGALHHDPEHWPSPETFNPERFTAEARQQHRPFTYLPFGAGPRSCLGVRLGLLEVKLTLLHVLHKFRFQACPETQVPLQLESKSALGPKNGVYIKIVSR
Experiment: TXA2 inhibition test: TXA2 generated from PGH2 with human platelet microsomes, measured by the response of superfused rabbit aortic strips
Type: biochemical
Conditions: test compound added to human platelet microsomes 5 minutes before mixing with PGH2; rabbit aorta response; read-out: approximate ED50 (inhibiting TXA2 formation) (converted)
Protocol: The compounds of the present invention were tested for TXA2 inhibition as follows:
Rabbit aortic strips were superfused in series with Krebs solution. Thromboxane A2 (TXA2) was generated by mixing prostaglandin H2 (PGH2) with human platelet microsomes (HPM).
Potential inhibitors were tested by comparing the response of the rabbit aorta to the amount of TXA2 produced by mixing PGH2 and HPM without the test compound in the reaction medium and then the amount of TXA2 produced when the test compound was added to the HPM 5 minutes before the HPM was mixed with PGH2. […] For a discussion of TXA2 synthetase inhibition testing see, e.g., R. Gorman, supra.

- IC50: ~3.71 nM
Structure (SMILES): O=C(O)c1cc2cc(Cc3cccnc3)ccc2s1 [Example 7, 5-(3-pyridinylmethyl)benzo[b]thiophene-2-carboxylic acid]
